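The compound was tested at five concentrations on cells cultured in 96-well plates, with a 48-hour exposure period. TGI marks complete inhibition of growth.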
Tests used:
Test in all cases: NCI-60 cell line screen, 48 h
[1] = system: NCI/ADR-RES ovarian
[2] = system: IGROV1 ovarian
[3] = system: U251 CNS
[4] = system: HL-60(TB) leukemia
[5] = system: RXF 393 renal
[6] = system: OVCAR-5 ovarian
[7] = system: A549 NSCLC
[8] = system: SNB-19 CNS
[9] = system: SW-620 colon
[10] = system: MCF7 breast
[11] = system: SF-268 CNS
[12] = system: HCT-116 colon
[13] = system: MDA-MB-231 breast
[14] = system: HOP-62 NSCLC
[15] = system: EKVX NSCLC
[16] = system: UO-31 renal
[17] = system: NCI-H23 lung
[18] = system: RPMI-8226 leukemia
[19] = system: HCT-15 colon
[20] = system: KM12 colon
[21] = system: UACC-62 melanoma
[22] = system: SF-539 CNS
[23] = system: COLO 205 colon
[24] = system: MALME-3M melanoma
[25] = system: SK-MEL-5 melanoma
[26] = system: CCRF-CEM leukemia
[27] = system: 786-0 renal
[28] = system: HT29 colon
[29] = system: OVCAR-8 ovarian
[30] = system: A498 renal
[31] = system: HS 578T breast
[32] = system: NCI-H226 lung
[33] = system: SN12C renal
[34] = system: UACC-257 melanoma
[35] = system: PC-3 prostate
[36] = system: ACHN renal
[37] = system: SR leukemia
[38] = system: MDA-MB-435
[39] = system: SF-295 CNS
[40] = system: OVCAR-3 ovarian
[41] = system: DU-145 prostate
[42] = system: NCI-H522 lung
[43] = system: SK-MEL-28 melanoma
[44] = system: HOP-92 NSCLC
[45] = system: K-562 leukemia
[46] = system: HCC-2998 colon
[47] = system: MOLT-4 leukemia
[48] = system: M14 melanoma
[49] = system: SK-OV-3 ovarian
[50] = system: BT-549 breast
[51] = system: NCI-H460 lung
[52] = system: SK-MEL-2 melanoma
[53] = system: CAKI-1 renal
[54] = system: SNB-75 CNS
[55] = system: LOX IMVI melanoma
[56] = system: OVCAR-4 ovarian
[57] = system: TK-10 renal
[58] = system: T-47D breast
[59] = system: MDA-N

With `CC(C)C[C@H](NC(=O)[C@@H](Cc1cccc2ccccc12)NC(=O)N1CCOCC1)B(O)O` the TGI [1] was greater than 100 µM, the TGI [2] was 23.5 µM and the TGI [3] was 17.7 µM. The TGI [4] was greater than 24.6 µM, the TGI [5] was 6.8 µM and the TGI [6] was 13.5 µM. It also gave a TGI [7] of 68 µM, a TGI [8] greater than 100 µM and a TGI [9] of 12.2 µM. The TGI [10] was greater than 52.7 µM, the TGI [11] was 15.1 µM and the TGI [12] was 5.94 µM. It also gave a TGI [13] of 20.3 µM, a TGI [14] of 33.3 µM and a TGI [15] of 47.6 µM. It also gave a TGI [16] of 41.5 µM, a TGI [17] of 8.94 µM and a TGI [18] of 17.4 µM. For the same compound, the TGI [19] was 50.1 µM, the TGI [20] was 20 µM and the TGI [21] was 16 µM. For the same compound, the TGI [22] was 4.61 µM, the TGI [23] was 36.4 µM and the TGI [24] was 2.72 µM. For the same compound, the TGI [25] was 9.24 µM, the TGI [26] was 15.2 µM and the TGI [27] was 19.7 µM. It also gave a TGI [28] of 8.86 µM, a TGI [29] of 44.9 µM and a TGI [30] of 18.1 µM. It also gave a TGI [31] greater than 25.6 µM, a TGI [32] of 3.2 µM and a TGI [33] of 20.4 µM. For the same compound, the TGI [34] was 5.18 µM, the TGI [35] was 24.9 µM and the TGI [36] was greater than 100 µM. The TGI [37] was 19.4 µM, the TGI [38] was 3.79 µM and the TGI [39] was 43.8 µM. For the same compound, the TGI [40] was 6.69 µM, the TGI [41] was 29.7 µM and the TGI [42] was 4.4 µM. It also gave a TGI [43] of 6.92 µM, a TGI [44] of 8.55 µM and a TGI [45] of 46.6 µM. For the same compound, the TGI [46] was 4.47 µM, the TGI [47] was greater than 100 µM and the TGI [48] was 10.8 µM. The TGI [49] was 40.6 µM, the TGI [50] was 18.1 µM and the TGI [51] was 40.6 µM. For the same compound, the TGI [52] was 13.1 µM, the TGI [53] was 33.2 µM and the TGI [54] was 18.8 µM. It also gave a TGI [55] of 5.98 µM, a TGI [56] greater than 57.8 µM and a TGI [57] of 25.4 µM. The TGI [58] was 5.43 µM.

`CCCCc1cc2c(cc1O)CCC1C2CC[C@@]2(C)C1CC[C@@H]2O` (stereo not given in full) gave a TGI [1] of 38.5 µM, a TGI [2] of 49.9 µM and a TGI [3] of 64.7 µM. It also gave a TGI [5] of 22.2 µM, a TGI [6] of 36.5 µM and a TGI [7] of 29.3 µM. The TGI [8] was greater than 100 µM, the TGI [9] was 59.2 µM and the TGI [10] was 30.4 µM. The TGI [11] was 89 µM, the TGI [12] was 36.6 µM and the TGI [13] was 62.1 µM. For the same compound, the TGI [14] was 57.3 µM, the TGI [15] was 33.6 µM and the TGI [16] was 38 µM. It also gave a TGI [17] of 41.3 µM, a TGI [18] of 39.1 µM and a TGI [19] greater than 100 µM. The TGI [20] was 32.4 µM, the TGI [21] was 29.5 µM and the TGI [22] was 59.3 µM. The TGI [23] was 49.5 µM, the TGI [24] was 39.2 µM and the TGI [25] was 39.2 µM. It also gave a TGI [26] of 56.7 µM, a TGI [27] of 73.1 µM and a TGI [28] of 50.3 µM. The TGI [29] was 43.4 µM, the TGI [30] was 57.2 µM and the TGI [31] was 43.8 µM. For the same compound, the TGI [32] was 40.6 µM, the TGI [33] was 39.3 µM and the TGI [34] was 35.9 µM. For the same compound, the TGI [35] was 35.3 µM, the TGI [36] was 29.7 µM and the TGI [37] was 51.3 µM. It also gave a TGI [38] of 36.5 µM, a TGI [39] of 35.8 µM and a TGI [40] of 29.7 µM. For the same compound, the TGI [41] was 35.3 µM, the TGI [42] was 43.7 µM and the TGI [43] was 45.1 µM. For the same compound, the TGI [44] was 39.3 µM, the TGI [45] was 43.6 µM and the TGI [46] was 50.9 µM. The TGI [47] was 28.2 µM, the TGI [59] was 51.2 µM and the TGI [48] was 41.7 µM. It also gave a TGI [49] of 37.1 µM, a TGI [51] of 63.5 µM and a TGI [52] of 38.1 µM. For the same compound, the TGI [53] was 52.6 µM, the TGI [54] was 31.7 µM and the TGI [55] was 39.3 µM. The TGI [56] was 37.3 µM, the TGI [57] was 33.7 µM and the TGI [58] was 35.8 µM.

Work on `CCCCCOP(=O)(OCCCCC)C(NC(C)=O)(C(=O)OCC)C(F)(F)F` (stereo not given) yielded a TGI [3] greater than 100 µM, a TGI [4] greater than 100 µM and a TGI [10] greater than 100 µM. For the same compound, the TGI [11] was greater than 100 µM, the TGI [12] was greater than 100 µM and the TGI [13] was greater than 100 µM. It also gave a TGI [14] greater than 100 µM, a TGI [15] greater than 100 µM and a TGI [16] greater than 100 µM. The TGI [18] was greater than 100 µM, the TGI [19] was greater than 100 µM and the TGI [21] was greater than 100 µM. It also gave a TGI [22] greater than 100 µM, a TGI [24] greater than 100 µM and a TGI [26] greater than 100 µM. It also gave a TGI [28] greater than 100 µM, a TGI [30] greater than 100 µM and a TGI [33] greater than 100 µM. The TGI [36] was greater than 100 µM, the TGI [37] was greater than 100 µM and the TGI [38] was greater than 100 µM. For the same compound, the TGI [41] was greater than 100 µM, the TGI [42] was greater than 100 µM and the TGI [43] was greater than 100 µM. The TGI [45] was greater than 100 µM, the TGI [46] was greater than 100 µM and the TGI [47] was greater than 100 µM. It also gave a TGI [59] greater than 100 µM, a TGI [48] greater than 100 µM and a TGI [49] greater than 100 µM. The TGI [54] was greater than 100 µM and the TGI [58] was greater than 100 µM.

In the case of `COC(=O)C1Cc2c([nH]c3ccccc23)-c2[nH]c3ccccc3c2CC(NC(C)=O)C(=O)NCC(=O)N1` (stereo not given), the TGI [1] is reported as greater than 100 µM, the TGI [2] is reported as greater than 100 µM and the TGI [3] is reported as greater than 100 µM. The TGI [5] was greater than 100 µM, the TGI [6] was greater than 100 µM and the TGI [7] was greater than 100 µM. For the same compound, the TGI [8] was greater than 100 µM, the TGI [9] was greater than 100 µM and the TGI [10] was greater than 100 µM. For the same compound, the TGI [11] was greater than 100 µM, the TGI [12] was greater than 100 µM and the TGI [13] was greater than 100 µM. The TGI [14] was greater than 100 µM, the TGI [15] was greater than 100 µM and the TGI [16] was greater than 100 µM. It also gave a TGI [17] greater than 100 µM, a TGI [18] greater than 100 µM and a TGI [19] greater than 100 µM. For the same compound, the TGI [20] was greater than 100 µM, the TGI [21] was greater than 100 µM and the TGI [22] was greater than 100 µM. The TGI [23] was greater than 100 µM, the TGI [25] was greater than 100 µM and the TGI [26] was greater than 100 µM. The TGI [27] was greater than 100 µM, the TGI [28] was greater than 100 µM and the TGI [29] was greater than 100 µM. The TGI [31] was greater than 100 µM, the TGI [32] was greater than 100 µM and the TGI [33] was greater than 100 µM. The TGI [34] was greater than 100 µM, the TGI [35] was greater than 100 µM and the TGI [36] was greater than 100 µM. For the same compound, the TGI [38] was greater than 100 µM, the TGI [39] was greater than 100 µM and the TGI [40] was greater than 100 µM. The TGI [41] was greater than 100 µM, the TGI [42] was greater than 100 µM and the TGI [43] was greater than 100 µM. For the same compound, the TGI [44] was greater than 100 µM, the TGI [45] was greater than 100 µM and the TGI [46] was greater than 100 µM. For the same compound, the TGI [47] was greater than 100 µM, the TGI [59] was greater than 100 µM and the TGI [49] was greater than 100 µM. The TGI [51] was greater than 100 µM, the TGI [52] was greater than 100 µM and the TGI [53] was greater than 100 µM. For the same compound, the TGI [54] was greater than 100 µM, the TGI [55] was greater than 100 µM and the TGI [56] was greater than 100 µM. For the same compound, the TGI [57] was greater than 100 µM and the TGI [58] was greater than 100 µM.
